The structures appear in SMILES notation. *1 amine or outer side, *2 acyl side, *3 side chain or, on linkers, in order; H or OH if unused. Where a SMILES comes first, the peptide text is derived from it. The star is where a group is joined. X1 = COc1ccc2c(c1)c(CC(=O)OCCS*)c(C)n2C(=O)c1ccc(Cl)cc1; Pteroyl = Nc1nc2ncc(CNc3ccc(C(=O)*)cc3)nc2c(=O)[nH]1; γGlu = O=C(O)[CH](CCC(=O)[*:2])N[*:1]

Results on 4 molecules are retold here after patent US9731035B2, “Method of imaging osteoarthritis using a folate conjugate” (Purdue Research Foundation, priority 2005, dated 2017).

The subject of assay [1] is folate receptors on white blood cells from dogs. As to the kind of experiment: 3H-folic acid binding to white blood cells from dogs. Also noted: species or system dog. The conditions noted are these: with/without 100-fold excess folic acid, FIG. 4. The method, then:
(§1) All binding experiments were conducted on ice or in a 4° C. cold room unless indicated otherwise. Folate conjugate and ^3H-folic acid binding studies were performed by incubating cells with a 100 nM concentration of the indicated folate dye conjugate for 45 minutes. […] An acidic wash to strip cell-surface bound folate conjugates was performed on indicated samples by washing the cell sample with a 150 mM NaCl solution adjusted to pH 3.5 with acetic acid. All antibody labeling was optimized by titration. Optimal labeling was most often achieved with a 1/1000-1/10,000 dilution of the manufacture's stock antibody solution. After cells were labeled with folate dye conjugates and/or antibodies, the samples were washed twice with PBS to remove non-specific binding. Analysis of folate conjugate binding and/or antibody binding was analyzed by confocal microscopy or by flow cytometry (FCS Calibur, BD, Franklin Lakes, N.J.). After washing ^3H-folic acid samples to remove non-specific binding, cells were dissolved in 0.25M NaOH and radioactivity was counted on a scintillation counter.

In assay [2] the target is T1, folate receptors on white blood cells from mice (Mus musculus, UniProt Q05685).
T1 construct: endogenous in cells; host or cells: mouse white blood cells
Put plainly: 3H-folic acid binding to white blood cells from mice. Particulars: with/without 100-fold excess folic acid, FIG. 4. As for the experimental part: as §1

The target of assay [3] is T2, folate receptors on human peripheral blood monocytes (Homo sapiens, UniProt P14207).
T2 construct: endogenous in cells; host or cells: human peripheral blood monocytes (PBMC isolated by Ficoll-Paque)
As to the kind of experiment: Folate dye conjugate binding to human peripheral blood monocytes, flow cytometry. Particulars: for percentage of human peripheral blood monocytes bound: CD11b+ monocytes, FIG. 2; for binding to human peripheral blood monocytes: FIG. 1. As for the experimental part:
An 8-10 ml sample of whole blood was collected in EDTA anticoagulant tubes. PBMCs were isolated from the blood samples using Ficoll-Paque Plus (Amersham Biosciences, Piscataway, N.J.) and by following the manufacture's provided protocol. Briefly, the blood sample was diluted 50:50 with a balanced salt solution (described below). 8 mL of Ficoll-Paque Plus was added to a 50 ml conical centrifuge tube. The diluted blood sample (approximately 16-20 ml) was layered on top of the Ficoll gradient. The sample was centrifuged at 400×g for 30 minutes at room temperature. Following centrifugation, the plasma layer (top clear layer) was removed using a pipette leaving the lymphocyte/monocyte layer undisturbed. The hazy cell layer immediately below the plasma layer was removed, being careful to remove the entire cell interface but a minimum amount of the Ficoll layer. The isolated cells were put into a sterile 50 ml conical centrifuge tube and diluted 3-fold (vol/vol) using the balanced salt solution. The resulting cell solution was gently mixed and centrifuged at 100×g for 10 minutes at room temperature to pellet the cells. The supernatant was removed and the cells were resuspended in folate deficient RPMI 1640 medium supplemented with 10% heat-inactivated FBS, penicillin (100 IU/ml) and streptomycin (100 μg/ml). Cells were seeded in microcentrifuge tubes or microscopy chambers as dictated by the experiment.
as §1
A general note: Flow cytometry measures light scatter and fluorescence of single cells or particles in a stream.

Assay [4] relates to folate receptors on peripheral blood monocytes of dogs. As to the kind of experiment: Folate dye conjugate binding to peripheral blood monocytes from dogs, flow cytometry. More on the design: species or system dog. Particulars: with/without 100-fold excess folic acid, FIG. 5, FIG. 6. As for the experimental part:
(§2) An 8-10 ml sample of whole blood was collected in EDTA anticoagulant tubes. PBMCs were isolated from the blood samples using Ficoll-Paque Plus (Amersham Biosciences, Piscataway, N.J.) and by following the manufacture's provided protocol. Briefly, the blood sample was diluted 50:50 with a balanced salt solution (described below). 8 mL of Ficoll-Paque Plus was added to a 50 ml conical centrifuge tube. The diluted blood sample (approximately 16-20 ml) was layered on top of the Ficoll gradient. The sample was centrifuged at 400×g for 30 minutes at room temperature. Following centrifugation, the plasma layer (top clear layer) was removed using a pipette leaving the lymphocyte/monocyte layer undisturbed. The hazy cell layer immediately below the plasma layer was removed, being careful to remove the entire cell interface but a minimum amount of the Ficoll layer. […]
(§3) All binding experiments were conducted on ice or in a 4° C. cold room unless indicated otherwise. […] Analysis of folate conjugate binding and/or antibody binding was analyzed by confocal microscopy or by flow cytometry (FCS Calibur, BD, Franklin Lakes, N.J.). After washing ^3H-folic acid samples to remove non-specific binding, cells were dissolved in 0.25M NaOH and radioactivity was counted on a scintillation counter.

Assay [5] deals with folate receptors on peripheral blood monocytes of horses. As to the kind of experiment: Folate-FITC binding to peripheral blood monocytes from horses, flow cytometry. More on the design: species or system horse. The conditions noted are these: with/without 100-fold excess folic acid, FIG. 5. The method, then: as §2, §3
Assay [6] concerns adjuvant-induced arthritis. As to the kind of experiment: Adjuvant-induced arthritis in rats, paw swelling. It counts as in vivo, rat. As for the experimental part: Arthritis was induced in 150-200 g female Lewis rats (Harlan, Indianapolis, Ind.), n=2-5/dose group. Briefly, 0.5 mg of heat-killed […] butericum, suspended in mineral oil (5 mg/ml), was injected on day 0 into the left hind foot of rats following anesthesia with ketamine and xylazine. All treated animals developed arthritis, as evidenced by dramatic swelling in the injected paw, progressive swelling in all noninjected limbs due to the systemic progression of arthritis, and radiographic analysis of affected limbs. All rats were maintained on a folate-deficient diet (DYETS, Inc., Bethlehem, Pa.) for 3 weeks prior to administration of therapeutic agents in order to lower serum folate levels to physiologically relevant concentrations. Control rats were also maintained on a folate-deficient diet but were not induced to develop arthritis.
The protocol described in Example 32 for arthritis induction was followed. The efficacy of folate-flumethasone (50 nmoles/kg/day) and folate-indomethacin (100 or 250 nmoles/kg/day) against adjuvant-induced arthritis in rats was investigated. Rats were injected intraperitoneally with either saline (control rats) or folate-flumethasone (50 nmoles/kg/day) or folate-indomethacin (100 or 250 nmoles/kg/day) starting at day 4. The sudden increase in swelling of the adjuvant-injected foot is due to influx of neutrophils which have no folate receptors. […]

The mark [7] stands for this setting: absence of unlabeled folic acid.
Where [8] appears, read: presence of a 100-fold excess of unlabeled folic acid.

T2 sequence (P14207 17-230): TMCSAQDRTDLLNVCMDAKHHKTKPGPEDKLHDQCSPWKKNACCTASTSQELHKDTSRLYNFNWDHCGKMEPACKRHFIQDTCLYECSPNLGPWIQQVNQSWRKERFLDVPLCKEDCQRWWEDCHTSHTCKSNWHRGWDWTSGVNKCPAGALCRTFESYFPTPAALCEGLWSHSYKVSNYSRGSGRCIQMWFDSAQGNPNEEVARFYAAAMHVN
T1 sequence (Q05685 21-227): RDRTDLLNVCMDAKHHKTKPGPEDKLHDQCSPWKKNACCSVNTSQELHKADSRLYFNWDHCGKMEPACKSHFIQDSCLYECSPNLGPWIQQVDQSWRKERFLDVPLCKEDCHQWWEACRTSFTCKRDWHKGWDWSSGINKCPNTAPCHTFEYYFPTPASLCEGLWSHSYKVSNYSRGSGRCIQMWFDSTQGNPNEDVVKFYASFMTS

For `Nc1nc2ncc(CNc3ccc(C(=O)N[C@@H](CCC(=O)O)C(=O)O)cc3)nc2c(=O)[nH]1` [^3H-Folic acid], the “folate receptor detection on white blood cells” value in assay [1] and in assay [2] was “detectable” throughout.
Consider `Nc1nc2ncc(CNc3ccc(C(=O)NC(CCC(=O)NCCNC(=S)Nc4ccc(C(=O)O)c(-c5c6ccc(=O)cc-6oc6cc(O)ccc56)c4)C(=O)O)cc3)nc2c(=O)[nH]1` (stereo not drawn) [folate-FITC], for which the “percentage of human peripheral blood monocytes bound” value in assay [3] (setting [7]) turned out to be 45.9%; in assay [3] (setting [8]), 2%. Also, the “binding to human peripheral blood monocytes” value in assay [3] (setting [7]) is on record as “bound”; in assay [3] (setting [8]) it was “competed”. Further, the “folate receptor detection on human peripheral blood monocytes” value in assay [3] (healthy humans and patients with rheumatoid arthritis, osteoarthritis, fibromyalgia, FIG. 8) was “detectable”; in assay [3] (patients with rheumatoid arthritis over the course of therapy, FIG. 10), “detectable”. For the same molecule, the “folate receptor detection on peripheral blood monocytes” value in assay [4] and in assay [5] was “detectable” each time.
On to `CC1CC2C3CC(F)C4=CC(=O)C=CC4(C)C3(F)C(O)CC2(C)C1(O)C(=O)COC(=O)OCCSSCC(NC(=O)CCC(NC(=O)c1ccc(NCc2cnc3nc(N)[nH]c(=O)c3n2)cc1)C(=O)O)C(=O)O` (stereo not drawn) [folate-flumethasone], for which the “effect on paw swelling (left foot dimensions) after about 7 days” value in assay [6] (50 nmoles/kg/day intraperitoneally starting at day 4, FIG. 9) is “potent therapeutic effects”.
Regarding `COc1ccc2c(c1)c(CC(=O)OCCSSCC(NC(=O)C(CC(=O)O)NC(=O)C(CC(=O)O)NC(=O)C(CCCNC(=N)N)NC(=O)C(CC(=O)O)NC(=O)CCC(NC(=O)c1ccc(NCc3cnc4nc(N)[nH]c(=O)c4n3)cc1)C(=O)O)C(=O)O)c(C)n2C(=O)c1ccc(Cl)cc1` (stereo not drawn) [folate-indomethacin] ({Pteroyl-γGlu}-DRDDC(X1)-OH; configuration not given here), the “effect on paw swelling (left foot dimensions) after about 7 days” value in assay [6] (100 or 250 nmoles/kg/day intraperitoneally starting at day 4, FIG. 9) is recorded as “potent therapeutic effects”.
